From patent publication US10913765B2, “Liver specific delivery-based gemcitabine prodrug nucleoside cyclic phosphate compound, and application thereof” (ZHEJIANG PALO ALTO PHARMACEUTICALS, INC., priority 2017, dated 2021)

Tests used:
[1] = human, 5 min, 25 μM, pH 7.4
Method: Human liver microsomes (HLM) were purchased from IVT (In Vitro Technologies), article number X008070, lot number IQF.
Enzymatic reaction was carried out in 100 mM KH2PO4 buffer solution (pH 7.4), the concentration of the test compounds was 25 μM, the concentration of human liver microsomes was 2 mg/ml, and NADPH concentration was 2 mM. The reaction was initiated by NADPH finally added, and after reaction for 5 min in a constant-temperature shaking water bath kettle, 1.5 times of volume of methanol containing internal standard (PMPA) was immediately added to terminate the reaction.
(§1) Centrifugation was carried out for 20 minutes at a maximum speed of 13,600 rpm using an Eppendorf tabletop centrifuge. Supernatant was taken, and after being blow-dried by a nitrogen blower, the supernatant was re-dissolved into a mobile phase A (0.1% formic acid v/v aqueous solution).
(§2) Analytical column: Waters, Acquity UPLC HSS T3 column
Column temperature: 40° C.
(§3) Ion source: electrospray ionization source
Ion mode: positive ion mode
Capillary voltage: 3.0 kV
Desolventizing airflow speed: 100 L/h

[2] = human, 5 min, 25 μM, pH 7.4; remark: listed apart in the source
Method: Human liver microsomes (HLM) were purchased from IVT (In Vitro Technologies), lot number SSP, article number X008070.
Enzymatic reaction was carried out in 100 mM KH2PO4 buffer solution (pH 7.4), the concentration of the test compounds was 25 M, the concentration of human liver microsomes was 2 mg/ml, and NADPH concentration was 2 mM. The reaction was initiated by NADPH finally added, and after reaction for 5 min in a constant-temperature shaking water bath kettle, 1.5 times of volume of methanol containing internal standard (PMPA) was immediately added to terminate the reaction.
as §1, §2
Column temperature: 40° C.
as §3
Ion mode: positive ion mode
Capillary voltage: 3.0 kV
Desolventizing airflow speed: 100 L/h

| SMILES | Activation Rate (rate of releasing monophosphate product dFdCMP) [1] [pmol/min/mg HLM] | also measured |
| --- | --- | --- |
| Nc1ccn([C@@H]2O[C@H](COP3(=O)OCC[C@H](c4cc(Cl)ccc4F)O3)[C@@H](O)C2(F)F)c(=O)n1 (stereo partly drawn) [PA4004] | 10.98 ± 1.23 | Conversion rate to dFdCMP relative to that of PA4001 [2]: 1.3 times; Conversion rate to dFdCMP relative to that of PA4003 [2]: ~9.5 times |
| Nc1ccn([C@@H]2O[C@H](COP3(=O)OCC[C@H](c4cc(F)ccc4Cl)O3)[C@@H](O)C2(F)F)c(=O)n1 (stereo partly drawn) [PA4011] | 35.28 ± 0.81 | Conversion rate to dFdCMP relative to that of PA4004 [1]: ~3.2 times |
| Nc1ccn([C@@H]2O[C@H](COP3(=O)OCC[C@H](c4cc(F)ccc4F)O3)[C@@H](O)C2(F)F)c(=O)n1 (stereo partly drawn) [PA4013] | 7.23 ± 0.53 |  |
| Nc1ccn([C@@H]2O[C@H](COP3(=O)OCC[C@H](c4ccc(F)c(F)c4)O3)[C@@H](O)C2(F)F)c(=O)n1 (stereo partly drawn) [PA4017] | 4.32 ± 0.76 |  |
| Nc1ccn([C@@H]2O[C@H](COP3(=O)OCC[C@H](c4cccc(Cl)c4F)O3)[C@@H](O)C2(F)F)c(=O)n1 (stereo partly drawn) [PA4010] | 9.56 ± 0.07 |  |
| Nc1ccn([C@@H]2O[C@H](COP3(=O)OCC[C@H](c4cc(F)cc(Cl)c4)O3)[C@@H](O)C2(F)F)c(=O)n1 (stereo partly drawn) [PA4002] |  | Conversion rate to dFdCMP relative to that of PA4001 [2]: 1.0 times; Conversion rate to dFdCMP relative to that of PA4003 [2]: about 7.3 times |
| Nc1ccn([C@@H]2O[C@H](COP3(=O)OCC[C@H](c4cccc(F)c4F)O3)[C@@H](O)C2(F)F)c(=O)n1 (stereo partly drawn) [PA4014] | 6.49 ± 0.19 |  |

More lines, main results first:

| Activation Rate (rate of releasing monophosphate product dFdCMP) [1] [pmol/min/mg HLM] | SMILES | also measured |
| --- | --- | --- |
| 5.25 ± 0.13 | Nc1ccn([C@@H]2O[C@H](COP3(=O)OCC[C@H](c4ccc(Cl)c(Cl)c4)O3)[C@@H](O)C2(F)F)c(=O)n1 (stereo partly drawn) [PA4021] |  |
| 10.45 ± 0.85 | Nc1ccn([C@@H]2O[C@H](COP3(=O)OCC[C@H](c4ccc(Cl)c(F)c4)O3)[C@@H](O)C2(F)F)c(=O)n1 (stereo partly drawn) [PA4009] |  |
| 6.92 ± 0.01 | Nc1ccn([C@@H]2O[C@H](COP3(=O)OCC[C@H](c4cc(Cl)cc(Cl)c4)O3)[C@@H](O)C2(F)F)c(=O)n1 (stereo partly drawn) [PA4006] |  |
| 7.62 ± 0.48 | Nc1ccn([C@@H]2O[C@H](COP3(=O)OCC[C@H](c4cccc(Cl)c4Cl)O3)[C@@H](O)C2(F)F)c(=O)n1 (stereo partly drawn) [PA4018] |  |
| 38.95 ± 1.17 | Nc1ccn([C@@H]2O[C@H](COP3(=O)OCC[C@H](c4cc(Cl)ccc4Cl)O3)[C@@H](O)C2(F)F)c(=O)n1 (stereo partly drawn) [PA4012] | Conversion rate to dFdCMP relative to that of PA4004 [1]: about 3.5 times |
| 5.45 ± 0.12 | Nc1ccn([C@@H]2O[C@H](COP3(=O)OCC[C@H](c4ccc(F)c(Cl)c4)O3)[C@@H](O)C2(F)F)c(=O)n1 (stereo partly drawn) [PA4008] |  |
